Target: H1047R PIK3CA enzyme (Homo sapiens, UniProt P42336, H1047R)
Test: ADP-Glo Biochemical PIK3CA Kinase Assay

Sequence of H1047R PIK3CA enzyme (P42336 whole entry H1047R): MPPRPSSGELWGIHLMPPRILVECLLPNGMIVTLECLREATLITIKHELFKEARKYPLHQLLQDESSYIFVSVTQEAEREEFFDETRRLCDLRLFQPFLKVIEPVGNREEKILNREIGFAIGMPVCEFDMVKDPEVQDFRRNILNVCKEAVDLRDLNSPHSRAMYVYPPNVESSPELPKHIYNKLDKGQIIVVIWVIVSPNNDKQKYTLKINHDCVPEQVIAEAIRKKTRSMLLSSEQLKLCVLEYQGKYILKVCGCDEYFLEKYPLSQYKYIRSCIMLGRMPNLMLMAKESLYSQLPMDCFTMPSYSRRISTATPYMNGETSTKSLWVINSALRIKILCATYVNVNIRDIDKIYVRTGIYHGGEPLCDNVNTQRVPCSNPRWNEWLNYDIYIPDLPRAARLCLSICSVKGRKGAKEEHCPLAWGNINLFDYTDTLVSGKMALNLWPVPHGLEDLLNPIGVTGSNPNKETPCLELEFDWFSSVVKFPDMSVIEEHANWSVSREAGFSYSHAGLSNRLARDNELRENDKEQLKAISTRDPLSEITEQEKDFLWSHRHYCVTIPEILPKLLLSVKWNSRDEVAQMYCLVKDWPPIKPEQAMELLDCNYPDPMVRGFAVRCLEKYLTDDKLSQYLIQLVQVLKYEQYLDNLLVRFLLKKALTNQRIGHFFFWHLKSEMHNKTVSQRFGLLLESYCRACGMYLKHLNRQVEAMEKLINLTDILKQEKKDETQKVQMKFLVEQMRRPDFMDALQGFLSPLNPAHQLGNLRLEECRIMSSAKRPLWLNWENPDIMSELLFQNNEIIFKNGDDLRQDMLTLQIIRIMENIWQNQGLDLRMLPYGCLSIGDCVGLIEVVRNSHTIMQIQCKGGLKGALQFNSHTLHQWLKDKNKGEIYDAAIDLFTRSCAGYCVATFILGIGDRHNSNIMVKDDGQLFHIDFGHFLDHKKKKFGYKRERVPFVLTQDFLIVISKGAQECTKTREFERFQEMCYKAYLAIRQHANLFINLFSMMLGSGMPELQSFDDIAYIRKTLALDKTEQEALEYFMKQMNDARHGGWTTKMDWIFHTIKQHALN
Sequence of H1047R PIK3CA enzyme (P27986 whole entry partner): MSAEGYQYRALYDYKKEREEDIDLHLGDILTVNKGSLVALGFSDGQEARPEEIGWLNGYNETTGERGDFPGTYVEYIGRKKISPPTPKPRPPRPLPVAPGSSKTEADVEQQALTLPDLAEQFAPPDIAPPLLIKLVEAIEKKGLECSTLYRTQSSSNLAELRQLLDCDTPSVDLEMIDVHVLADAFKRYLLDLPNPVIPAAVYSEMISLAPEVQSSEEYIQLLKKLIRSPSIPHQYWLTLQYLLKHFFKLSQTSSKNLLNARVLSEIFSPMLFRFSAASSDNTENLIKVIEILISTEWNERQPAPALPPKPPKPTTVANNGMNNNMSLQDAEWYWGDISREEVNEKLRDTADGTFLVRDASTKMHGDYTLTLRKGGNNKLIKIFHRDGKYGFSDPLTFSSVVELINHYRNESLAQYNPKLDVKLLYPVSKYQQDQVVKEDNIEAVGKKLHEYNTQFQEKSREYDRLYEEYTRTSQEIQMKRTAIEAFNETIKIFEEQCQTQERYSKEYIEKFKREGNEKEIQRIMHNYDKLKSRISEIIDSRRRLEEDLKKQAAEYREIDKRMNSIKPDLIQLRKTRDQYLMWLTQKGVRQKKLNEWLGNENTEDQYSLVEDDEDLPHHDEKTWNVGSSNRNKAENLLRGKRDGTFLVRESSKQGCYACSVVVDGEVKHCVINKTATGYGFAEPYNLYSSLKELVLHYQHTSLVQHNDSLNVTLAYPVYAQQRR

Row | SMILES | IC50
1 | O=C1Cc2cccc(NC(=O)c3cc(F)cc(C(F)(F)F)c3)c2C(c2ccccc2Cl)N1 (stereo not shown) [Compound I-1178] | 1 to 10 µM
2 | O=C1NC(c2cccnc2Cl)c2c(NC(=O)c3nsc4ccccc34)cccc21 (stereo not shown) [Compound I-158] | 1 to 10 µM
3 | O=C(Nc1cccc2c1C(c1cc(Br)ccc1Cl)NC2=O)c1cc(O)cc(C(F)(F)F)c1 (stereo not shown) [Compound I-414] | 0.1 to 0.5 µM
4 | Cc1ccccc1C1NC(=O)c2cccc(NC(=O)c3coc4c(F)cc(F)cc34)c21 (stereo not shown) [Compound I-58] | 0.1 to 0.5 µM
5 | O=C(Nc1cccc2c1C(c1ccnc(O)c1)NC2=O)c1cc(F)cc(C(F)(F)F)c1 (stereo not shown) [Compound I-658] | 10 to 100 µM
6 | O=C1NC(c2cc(F)ccc2Cl)c2c(NC(=O)[C@H]3C[C@@H](O)c4ccccc43)cc(Br)cc21 (mixture of isomers) [Compound I-1942] | 10 to 100 µM
7 | NS(=O)(=O)c1cc(-c2ccc3ncnn3c2)cc2c1[C@@H](c1cc(F)ccc1Cl)NC2=O [Compound I-2100] | 10 to 100 µM
8 | O=C1N[C@H](c2cc(F)ccc2Cl)c2c(NC(=O)N3C[C@H](O)c4cc(F)ccc43)cc(-c3cnn(C(F)F)c3)cc21 (single isomer, unassigned) [Compound I-2475] | 1 to 10 µM
9 | O=C(Nc1ccccc1)Nc1cc(Br)cc2c1[C@H](c1cc(F)ccc1Cl)NC2=O (stereo in doubt) [Compound I-1945] | 10 to 100 µM
10 | N#Cc1cnc2ccc(-c3cc(NC(=O)c4cc(F)cc(C(F)(F)F)c4)c4c(c3)C(=O)N[C@@H]4c3cc(F)ccc3Cl)cn12 [Compound I-1442] | 0.1 to 0.5 µM
11 | O=C(Nc1cc(Br)cc2c1C(c1cc(F)ccc1Cl)NC2=O)NC1(C(F)(F)F)CC1 (stereo not shown) [Compound I-1294] | 1 to 10 µM
12 | O=C1N[C@@H](c2cc(F)ccc2Cl)c2c(NC(=O)N3C[C@H](O)c4c3ccc(F)c4F)cccc21 (single isomer, unassigned) [Compound I-2312] | 1 to 10 µM
13 | Cc1ccccc1-n1[nH]c(=O)c2cccc(NC(=O)c3cc(F)cc(C(F)(F)F)c3)c21 [Compound I-178] | 0.5 to 1 µM
14 | O=C(Nc1cccc2c1C(c1cccc(Br)c1)NC2=O)c1cc(F)cc(C(F)(F)F)c1 (stereo not shown) [Compound I-663] | 10 to 100 µM
15 | Cc1ccccc1C1NC(=O)c2cc(-c3cnn(C)c3)cc(NC(=O)c3csc4ccccc34)c21 (stereo not shown) [Compound I-115, N-[6-(1-methyl-1H-pyrazol-4-yl)-3-(2-methylphenyl)-1-oxo-2,3-dihydro-1H-isoindol-4-yl]-1-benzothiophene-3-carboxamide] | ≤ 0.1 µM
16 | NCc1cc(NC(=O)N2C[C@@](O)(C(F)F)c3cc(F)ccc32)c2c(c1)C(=O)N[C@H]2c1cc(F)ccc1Cl (single isomer, unassigned) [Compound I-2696] | 1 to 10 µM
17 | N#Cc1cc(NC(=O)N2C[C@@H](O)c3cc(F)ccc32)c2c(c1)C(=O)N[C@H]2c1cc(F)ccc1Cl (single isomer, unassigned) [Compound I-2493] | 0.1 to 0.5 µM
18 | O=C(Nc1cc(-c2ccc3ncc(C(F)F)n3c2)cc2c1[C@H](c1cc(F)ccc1Cl)NC2=O)c1cc(F)cc(C(F)(F)F)c1 [Compound I-1937] | ≤ 0.1 µM
19 | O=C1N[C@H](c2cc(F)ccc2Cl)c2c(NC(=O)C3(c4cc(F)cc(C(F)(F)F)c4)CCCC3)cc(Br)cc21 [Compound I-2070] | 10 to 100 µM
20 | O=C1NC(c2cc(F)ccc2Cl)c2c(NC(=O)N3CCCC(c4ccccc4)C3)cc(Br)cc21 (racemic) [Compound I-597] | 1 to 10 µM
21 | O=C1NC(c2cc(F)ccc2Cl)c2c1cccc2N1Cc2ccccc2CC1=O (stereo not shown) [Compound I-1746] | 10 to 100 µM
22 | O=C1N[C@@H](c2cc(F)ccc2Cl)c2c(NC(=O)N3C[C@@H](O)c4c(F)cccc43)cccc21 (single isomer, unassigned) [Compound I-2144] | 1 to 10 µM

Row | SMILES | IC50
23 | O=C(Nc1cc(Br)cc2c1C(c1cc(F)ccc1Cl)NC2=O)c1nc2ccccc2[nH]1 (stereo not shown) [Compound I-1617] | 1 to 10 µM
24 | O=C1NC(c2cc(F)ccc2Cl)c2c(NC(=O)N3CCc4ccc(C(F)(F)F)cc43)cccc21 (stereo not shown) [Compound I-2447] | 1 to 10 µM
25 | O=C(Nc1ccccc1)c1cccc2c1C(c1cc(F)ccc1Cl)NC2=O (stereo not shown) [Compound I-2188] | 10 to 100 µM
26 | COc1cc2c(cn1)N(C(=O)Nc1ccnc3c1C(c1ccccc1C)NC3=O)CC2 (stereo not shown) [Compound I-324] | 10 to 100 µM
27 | O=C(Nc1cc(Br)cc2c1C(c1cccc(F)c1Cl)NC2=O)c1cc(F)cc(C(F)(F)F)c1 (stereo not shown) [Compound I-672] | ≤ 0.1 µM
28 | Nc1cc(NC(=O)N2C[C@@H](O)c3ccccc32)c2c(c1)C(=O)N[C@@H]2c1cc(F)ccc1Cl (single isomer, unassigned) [Compound I-2131] | 1 to 10 µM
29 | O=C(CC1CCC1)Nc1cc(-c2ccc3ncnn3c2)cc2c1C(c1cc(F)ccc1Cl)NC2=O (stereo not shown) [Compound I-1777] | 10 to 100 µM
30 | O=C(NCC(F)F)Nc1cc(NC(=O)c2cc(F)cc(C(F)(F)F)c2)c2c(c1)C(=O)NC2c1cc(F)ccc1Cl (stereo not shown) [Compound I-510] | ≤ 0.1 µM
31 | Cc1ccc(F)cc1C1NC(=O)c2cccc(NC(=O)c3cc(F)cc(C(F)(F)F)c3)c21 (stereo not shown) [Compound I-281] | 0.1 to 0.5 µM
32 | O=C1NC(c2cc(F)ccc2Cl)c2c1cc(-c1ccc3ncnn3c1)cc2-c1ccc2ccccc2c1 (stereo not shown) [Compound I-1729] | 1 to 10 µM
33 | O=C(Nc1cc(Br)cc2c1C(c1cc(F)ccc1Cl)NC2=O)c1cccc(C(F)(F)F)n1 (stereo not shown) [Compound I-567] | 1 to 10 µM
34 | NCCc1cc(NC(=O)N2C[C@H](O)c3cc(F)ccc32)c2c(c1)C(=O)N[C@H]2c1cc(F)ccc1Cl (single isomer, unassigned) [Compound I-2445] | 1 to 10 µM
35 | O=C1N[C@@H](c2cc(F)ccc2Cl)c2c(NC(=O)N3C[C@@](O)(C(F)(F)F)c4cc(F)ccc43)cc(-n3ccccc3=O)cc21 (single isomer, unassigned) [Compound I-2530] | 1 to 10 µM
36 | O=C(Nc1cc(Br)cc2c1C(c1cc(F)ccc1Cl)NC2=O)c1ccc(OC(F)(F)F)cc1 (stereo not shown) [Compound I-524] | 1 to 10 µM
37 | O=C1NC(c2cc(F)ccc2Cl)c2c(NC(=O)[C@@H](O)c3cc(F)cc(F)c3)cc(Br)cc21 (single isomer, unassigned) [Compound I-803] | 10 to 100 µM
38 | Cc1c(F)cccc1C1NC(=O)c2cccc(NC(=O)c3nsc4ccccc34)c21 (stereo not shown) [Compound I-106] | 0.1 to 0.5 µM
39 | O=C1N[C@H](c2cc(F)ccc2Cl)c2c(NC(=O)N3C[C@](O)(C(F)(F)F)c4cc(F)ccc43)ccc(-n3nccn3)c21 (single isomer, unassigned) [Compound I-2526] | 1 to 10 µM
40 | O=C1NC(c2cc(F)ccc2Cl)c2c1cc(-c1ccc3ncnn3c1)cc2N1CCOCC1 (stereo not shown) [Compound I-1911] | 10 to 100 µM
41 | O=C(CCC(F)(F)F)Nc1cccc2c1[C@@H](c1cc(F)ccc1Cl)NC2=O [Compound I-2119] | 10 to 100 µM
42 | N#Cc1cnn(Cc2cc(NC(=O)N3C[C@@](O)(C(F)(F)F)c4cc(F)ccc43)c3c(c2)C(=O)N[C@H]3c2cc(F)ccc2Cl)c1 (single isomer, unassigned) [Compound I-2672] | 10 to 100 µM
43 | O=C1N[C@H](c2cc(F)ccc2Cl)c2c(NC(=O)N3CCc4cc(F)ccc43)cc(-c3cnn(C(F)F)c3)cc21 (single isomer, unassigned) [Compound I-2356] | 1 to 10 µM

Now from value to molecule:

Row | IC50 | SMILES
44 | ≤ 0.1 µM | O=C(Nc1cc(OC2CCC2(F)F)cc2c1C(c1cc(F)ccc1Cl)NC2=O)c1cc(F)cc(C(F)(F)F)c1 (stereo not shown) [Compound I-1198]
45 | 0.1 to 0.5 µM | O=C1NC[C@H](c2cc(NC(=O)c3cc(F)cc(C(F)(F)F)c3)c3c(c2)C(=O)N[C@@H]3c2cc(F)ccc2Cl)O1 (single isomer, unassigned) [Compound I-1558]
46 | ≤ 0.1 µM | CO[C@@H]1CC[C@H]1Nc1cc(NC(=O)c2cc(F)cc(C(F)(F)F)c2)c2c(c1)C(=O)NC2c1cc(F)ccc1Cl (mixture of isomers) [Compound I-780]
47 | 1 to 10 µM | O=C(Nc1cc(Br)cc2c1[C@@H](c1cc(F)ccc1Cl)NC2=O)c1cc(F)cc(C(F)(F)F)c1 [Compound I-387]
48 | 1 to 10 µM | O=C(Nc1cc(Br)cc2c1[C@@H](c1cc(F)ccc1F)NC2=O)c1cc(F)cc(C(F)(F)F)c1 [Compound I-671]
49 | ≤ 0.1 µM | O=C(Nc1cc(Cc2ccc3c(c2)CCNC3=O)cc2c1[C@H](c1cc(F)ccc1Cl)NC2=O)c1cc(F)cc(C(F)(F)F)c1 [Compound I-1626]
50 | 0.5 to 1 µM | O=C1NC(c2cc(F)ccc2Cl)c2c(NC(=O)c3cc(F)cc4cn[nH]c34)cccc21 (stereo not shown) [Compound I-594]
51 | ≤ 0.1 µM | CC(C#N)n1cc(-c2cc(NC(=O)c3cc(F)cc(C(F)(F)F)c3)c3c(c2)C(=O)NC3c2cc(F)ccc2Cl)cn1 (stereo not shown) [Compound I-1837]
52 | ≤ 0.1 µM | O=C(Nc1cc(-c2ccn3cnnc3c2)cc2c1C(c1cc(F)ccc1Cl)NC2=O)c1cc(F)cc(C(F)(F)F)c1 (stereo not shown) [Compound I-1501]
53 | 0.1 to 0.5 µM | NC(=O)c1cnccc1-c1cc(NC(=O)c2cc(F)cc(C(F)(F)F)c2)c2c(c1)C(=O)NC2c1cc(F)ccc1Cl (stereo not shown) [Compound I-1215]
54 | ≤ 0.1 µM | Cc1nc(C)c(-c2cc(NC(=O)c3cc(F)cc(Cl)c3)c3c(n2)C(=O)NC3c2cc(F)ccc2Cl)s1 (stereo not shown) [Compound I-459]
55 | ≤ 0.1 µM | Cc1ncc(-c2cc(NC(=O)c3cc(F)cc(C(F)(F)F)c3)c3c(c2)C(=O)NC3c2cc(F)ccc2Cl)c(N)n1 (stereo not shown) [Compound I-1122]
56 | ≤ 0.1 µM | O=C(Nc1cc(CN2CC(F)(F)C2)cc2c1C(c1cc(F)ccc1Cl)NC2=O)c1cc(F)cc(C(F)(F)F)c1 (stereo not shown) [Compound I-348, N-(3-(2-Chloro-5-fluorophenyl)-6-((3,3-difluoroazetidin-1-yl)methyl)-1-oxoisoindolin-4-yl)-3-fluoro-5-(trifluoromethyl)benzamide]
57 | 0.1 to 0.5 µM | Cc1nn(C)cc1-c1cc(NC(=O)c2cc(F)cc(Cl)c2)c2c(n1)C(=O)NC2c1cc(F)ccc1Cl (stereo not shown) [Compound I-380]
58 | ≤ 0.1 µM | O=C(Nc1cc(-c2cnn(-c3cscn3)c2)cc2c1C(c1cc(F)ccc1Cl)NC2=O)c1cc(F)cc(C(F)(F)F)c1 (stereo not shown) [Compound I-1571]
59 | 0.5 to 1 µM | N#CCOc1cc(NC(=O)c2cc(F)cc(C(F)(F)F)c2)c2c(c1)C(=O)N[C@@H]2c1cc(F)ccc1Cl [Compound I-1887]
60 | 1 to 10 µM | O=C(Nc1cc(-c2cccnc2)cc2c1[C@H](c1cc(F)ccc1Cl)NC2=O)c1cc(F)cc(C(F)(F)F)c1 (stereo in doubt) [Compound I-1008]
61 | ≤ 0.1 µM | Cn1cc(-c2cc(NC(=O)c3cc(F)cc(Cl)c3)c3c(n2)C(=O)N[C@H]3c2cc(F)ccc2Cl)cn1 [Compound I-386]
